Measurements: patent US7569601B2, “Cycloalkylidene compounds as modulators of estrogen receptor” (SmithKline Beecham Corporation, priority 2003, dated 2009)

A melting point of 134 to 135 °C was found for `CC1(C)CC(=C(c2ccc(O)cc2)c2ccc(CO)cc2)CC(C)(C)C1` [Example 91, 4-[[4-(Hydroxymethyl)phenyl](3,3,5,5-tetramethylcyclohexylidene)methyl]phenol] in this work. A melting point of 149 to 150 °C was found for `CC1(C)CC(=C(c2ccc(O)cc2)c2ccc(S(C)(=O)=O)cc2)CC(C)(C)C1` [Example 30, 4-[[4-(Methylsulfonyl)phenyl](3,3,5,5 tetramethylcyclohexylidene)methyl]phenol] in this work. A melting point of 209 to 210 °C was found for `CC1(C)CC(=C(c2ccc(O)cc2)c2ccc(C(N)=O)cc2)CC(C)(C)C1` [Example 31, 4-[(4-hydroxyphenyl)(3,3,5,5-tetramethylcyclohexylidene)methyl]benzamide] in this work. A melting point of 203 to 204 °C was found for `CC1(C)CC(=C(c2ccc(O)cc2)c2ccc(OCCCC(=O)O)cc2)CC(C)(C)C1` [Example 84, 4-({4-[(4-hydroxyphenyl)(3,3,5,5-tetramethylcyclohexylidene)methyl]phenyl}oxy)butanoic acid] in this work. A melting point of 195 to 196 °C was found for `CC(=O)c1ccc(C(=C2CC(C)(C)CC(C)(C)C2)c2ccc(O)cc2)cc1` [Example 104, 1-{4-[(4-Hydroxyphenyl)(3,3,5,5-tetramethylcyclohexylidene)methyl]phenyl}ethanone] in this work. A melting point of 125 to 128 °C was found for `CC1(C)CC(=C(c2ccc(/C=C/C(=O)O)cc2)c2ccc(O)c(F)c2)CC(C)(C)O1` [Example 46, (2E)-3-{4-[(3-fluoro-4-hydroxyphenyl)(2,2,6,6-tetramethyltetrahydro-4H-pyran-4-ylidene)methyl]phenyl}-2-propenoic acid] in this work. A melting point of 128 to 129 °C was found for `CC1(C)CC(=C(c2ccc(O)cc2)c2ccc(-c3ccoc3)cc2)CC(C)(C)C1` [Example 94, 4-[[4-(3-furanyl)phenyl](3,3,5,5-tetramethylcyclohexylidene)methyl]phenol] in this work. A melting point of 138 to 139 °C was found for `C#Cc1ccc(C(=C2CC(C)(C)CC(C)(C)C2)c2ccc(O)cc2)cc1` [Example 49, 4-[(4-Ethynylphenyl)(3,3,5,5-tetramethylcyclohexylidene)methyl]phenol] in this work. A melting point of 118 to 121 °C was found for `CC1(C)CC(=C(c2ccc(/C=C/C(=O)O)cc2)c2ccc(O)c(Cl)c2)CC(C)(C)O1` [Example 44, (2E)-3-{4-[(3-Chloro-4-hydroxyphenyl)(2,2,6,6-tetramethyltetrahydro-4H-pyran-4-ylidene)methyl]phenyl}-2-propenoic acid] in this work. A melting point of 164 to 165 °C was found for `O=C(O)/C=C/c1ccc(C(=C2CCCCCC2)c2ccc(O)c(F)c2)cc1` [Example 45, (2E)-3-{4-[(3-fluoro-4-hydroxyphenyl)(cycloheptylidene)methyl]phenyl}-2-propenoic acid] in this work. A melting point of 186 to 187 °C was found for `CC(C)(O)C#Cc1ccc(C(=C2CC(C)(C)CC(C)(C)C2)c2ccc(O)cc2)cc1` [Example 101, 4-[[4-(3-hydroxy-3-methyl-1-butyn-1-yl)phenyl](3,3,5,5-tetramethylcyclohexylidene)methyl]phenol] in this work. A melting point of 155 to 156 °C was found for `O=C(O)/C=C/c1ccc(C(=C2CCCCCC2)c2ccc(O)c(Cl)c2)cc1` [Example 42, (2E)-3-{4-[(3-Chloro-4-hydroxyphenyl)(cycloheptylidene)methyl]phenyl}-2-propenoic acid] in this work. A melting point of 163 to 164 °C was found for `CC1(C)CC(=C(c2ccc(O)cc2)c2ccc(OCC(=O)O)cc2)CC(C)(C)C1` [Example 83, ({4-[(4-Hydroxyphenyl)(3,3,5,5-tetramethylcyclohexylidene)methyl]phenyl}oxy)acetic acid] in this work. A melting point of 122 to 124 °C was found for `CC1(C)CC(=C(c2ccc(O)cc2)c2ccc(OCCOCCO)cc2)CC(C)(C)C1` [Example 23, 4-[[4-({2-[(2-Hydroxyethyl)oxy]ethyl}oxy)phenyl](3,3,5,5-tetramethylcyclohexylidene)methyl]phenol] in this work. A melting point of 220 to 221 °C was found for `CC1(C)CC(=C(c2ccc(O)cc2)c2ccc(CC(=O)O)cc2)CC(C)(C)C1` [Example 51, {4-[(4-Hydroxyphenyl)(3,3,5,5-tetramethylcyclohexylidene)methyl]phenyl}acetic acid] in this work. A melting point of 160 to 161 °C was found for `CC1(C)CC(=C(c2ccc(O)cc2)c2ccc(CCCO)cc2)CC(C)(C)C1` [Example 93, 4-[[4-(3-Hydroxypropyl)phenyl](3,3,5,5-tetramethylcyclohexylidene)methyl]phenol] in this work. A melting point of 222 to 223 °C was found for `CC1(C)CC(=C(c2ccc(O)cc2)c2ccc(-c3ccc(CO)cc3)cc2)CC(C)(C)C1` [Example 105, 4-[[4′-(Hydroxymethyl)-4-biphenylyl](3,3,5,5-tetramethylcyclohexylidene)methyl]phenol] in this work. A melting point of 141 to 142 °C was found for `CC1(C)CC(=C(c2ccc(O)cc2)c2ccc(C#CCO)cc2)CC(C)(C)C1` [Example 48, 4-[[4-(3-hydroxy-1-propyn-1-yl)phenyl](3,3,5,5-tetramethylcyclohexylidene)methyl]phenol] in this work. A melting point of 110 to 111 °C was found for `N#Cc1ccc(C(=C2CCCCCC2)c2ccc(O)cc2)cc1` [Example 77, 4-[cycloheptylidene(4-hydroxyphenyl)methyl]benzonitrile] in this work. A melting point of 159 to 160 °C was found for `CC1(C)CC(=C(c2ccc(O)cc2)c2ccc(CCO)cc2)CC(C)(C)C1` [Example 92, 4-[[4-(2-Hydroxyethyl)phenyl](3,3,5,5-tetramethylcyclohexylidene)methyl]phenol] in this work. A melting point of 219 to 220 °C was found for `CC1(C)CC(=C(c2ccc(O)cc2)c2ccc(/C=C/C(=O)O)cc2)CC(C)(C)C1` [Example 6, (2E)-3-{4-[(4-Hydroxyphenyl)(3,3,5,5-tetramethylcyclohexylidene)methyl]phenyl}-2-propenoic acid] in this work. A melting point of 154 to 155 °C was found for `CC1(C)CC(=C(c2ccc(O)cc2)c2ccc(OCCO)cc2)CC(C)(C)C1` [Example 32, 4-[{4-[(2-Hydroxyethyl)oxy]phenyl}(3,3,5,5-tetramethylcyclohexylidene)methyl]phenol] in this work. A melting point of 170 to 171 °C was found for `O=C(O)COc1ccc(C(=C2CCCCCC2)c2ccc(O)cc2)cc1` [Example 68, ({4-[Cycloheptylidene(4-hydroxyphenyl)methyl]phenyl}oxy)acetic acid] in this work. A melting point of 243 to 244 °C was found for `CC1(C)CC(=C(c2ccc(O)cc2)c2ccc(CCC(=O)O)cc2)CC(C)(C)C1` [Example 61, 3-{4-[(4-Hydroxyphenyl)(3,3,5,5-tetramethylcyclohexylidene)methyl]phenyl}propanoic acid] in this work. A melting point of 193 to 195 °C was found for `CC1(C)CC(=C(c2ccc(/C=C/C(=O)O)cc2)c2ccc(O)c(F)c2)CC(C)(C)C1` [Example 47, (2E)-3-{4-[(3-fluoro-4-hydroxyphenyl)(3,3,5,5-tetramethylcyclohexylidene)methyl]phenyl}-2-propenoic acid] in this work. A melting point of 230 to 231 °C was found for `CC1(C)CC(=C(c2ccc(O)cc2)c2ccc(-c3ccccc3C(=O)O)cc2)CC(C)(C)C1` [Example 107, 4′-[(4-Hydroxyphenyl)(3,3,5,5-tetramethylcyclohexylidene)methyl]-2-biphenylcarboxylic acid] in this work. A melting point of 233 to 234 °C was found for `CC1(C)CC(=C(c2ccc(O)cc2)c2ccc(C#CCCC(=O)O)cc2)CC(C)(C)C1` [Example 103, 5-{4-[(4-Hydroxyphenyl)(3,3,5,5-tetramethylcyclohexylidene)methyl]phenyl}-4-pentynoic acid] in this work. A melting point of 197 to 198 °C was found for `CC1(C)CC(=C(c2ccc(O)cc2)c2ccc(-c3cccc(CO)c3)cc2)CC(C)(C)C1` [Example 106, 4-[[3′-(Hydroxymethyl)-4-biphenylyl](3,3,5,5-tetramethylcyclohexylidene)methyl]phenol] in this work. A melting point of 111 to 114 °C was found for `CC1(C)CC(=C(c2ccc(/C=C/C(=O)O)cc2)c2ccc(O)c(Cl)c2)CC(C)(C)C1` [Example 43, (2E)-3-{4-[(3-Chloro-4-hydroxyphenyl)(3,3,5,5-tetramethylcyclohexylidene)methyl]phenyl}-2-propenoic acid] in this work. A melting point of 125 to 126 °C was found for `OCCCC#Cc1ccc(C(=C2CCCCCC2)c2ccc(O)cc2)cc1` [Example 100, 4-{Cycloheptylidene[4-(5-hydroxy-1-pentyn-1-yl)phenyl]methyl}phenol] in this work. A melting point of 183 to 184 °C was found for `CC1(C)CC(=C(c2ccc(O)cc2)c2ccc(C#CCCO)cc2)CC(C)(C)C1` [Example 102, 4-[[4-(4-hydroxy-1-butyn-1-yl)phenyl](3,3,5,5-tetramethylcyclohexylidene)methyl]phenol] in this work. A melting point of 171 to 172 °C was found for `CC1(C)CC(=C(c2ccc(O)cc2)c2ccc(-c3ccccc3CO)cc2)CC(C)(C)C1` [Example 108, 4-[[2′-(Hydroxymethyl)-4-biphenylyl](3,3,5,5-tetramethylcyclohexylidene)methyl]phenol] in this work. A melting point of 118 to 121 °C was found for `CC(=O)Nc1ccc(C(=C2CC(C)(C)CC(C)(C)C2)c2ccc(O)cc2)cc1` [Example 21, N-{4-[(4-hydroxyphenyl)(3,3,5,5-tetramethylcyclohexylidene)methyl]phenyl}acetamide] in this work.
